Experimental data as given in US20250313535A1, “ALPHA 4 BETA 7 INTEGRIN MODULATORS AND USES THEREOF” (DICE MOLECULES SV, INC., priority 2022, published 2025).

Assays:
[1] = biological target: α4β1 integrin (Homo sapiens (Human), UniProt P05556+P13612); experiment: Integrin Adhesion Assay: Protocol 2 (VCAM-coated plate, Jurkat cells, CellTiter GLO readout); assay type: cell-based; details: determined by at least one of the assays described (protocol not specified)
Description: α4β7 and α4β1 inhibition was evaluated in vitro using at least one of the following procedures:
Integrin Adhesion Assay: Protocol 2
VCAM (R&D Systems, 0.1 ug) was diluted in 50 μL PBS, added to each well of an opaque ELISA plate (Thermo), and incubated overnight at 4° C. Coated plates were washed once with PBS and then blocked with 200 μL of assay buffer (10 mM HEPES, 150 mM NaCl, 1 mM MnCl2, 0.1 mM CaCl2), 1% BSA) for 1 hour at 37° C. and 5% CO2. After incubation, buffer was aspirated from the plates and 50 μL of fresh assay buffer was added. Compounds were added by compounds dispenser (Tecan) and DMSO concentration was normalized to 1% across each plate. 50 μL of Jurkat cells (2×10^6 per mL) were added to each well and the plates were incubated for 1 hour at 37° C. and 5% CO2. After incubation, plates were allowed to cool to RT for 10 minutes before being washed four times in assay buffer by an automated plate washer (BioTek). After washing, 100 μL of a 1:1 mixture of assay buffer and CellTiter GLO 2.0 reagent (Promega) were added to each well. Plates were mixed for 2 minutes at 1000 rpm and then allowed to incubate an additional 10 minutes before reading out luminescence on a Tecan Spark plate reader. Raw data was converted to percent inhibition based on DMSO only and control compound wells, and curves were analyzed by 4-parameter fit within Dotmatics software.

[2] = biological target: α4β7 integrin (Homo sapiens (Human), UniProt P13612+P26010); experiment: Integrin Adhesion Assay: Protocol 1 (MAdCAM-coated plate, RPMI-8866 cells, CellTiter GLO readout); assay type: cell-based; details: integrin adhesion assay; determined by at least one of the assays described (protocol not specified)
Sequence of α4β7 integrin (P13612 34-1032): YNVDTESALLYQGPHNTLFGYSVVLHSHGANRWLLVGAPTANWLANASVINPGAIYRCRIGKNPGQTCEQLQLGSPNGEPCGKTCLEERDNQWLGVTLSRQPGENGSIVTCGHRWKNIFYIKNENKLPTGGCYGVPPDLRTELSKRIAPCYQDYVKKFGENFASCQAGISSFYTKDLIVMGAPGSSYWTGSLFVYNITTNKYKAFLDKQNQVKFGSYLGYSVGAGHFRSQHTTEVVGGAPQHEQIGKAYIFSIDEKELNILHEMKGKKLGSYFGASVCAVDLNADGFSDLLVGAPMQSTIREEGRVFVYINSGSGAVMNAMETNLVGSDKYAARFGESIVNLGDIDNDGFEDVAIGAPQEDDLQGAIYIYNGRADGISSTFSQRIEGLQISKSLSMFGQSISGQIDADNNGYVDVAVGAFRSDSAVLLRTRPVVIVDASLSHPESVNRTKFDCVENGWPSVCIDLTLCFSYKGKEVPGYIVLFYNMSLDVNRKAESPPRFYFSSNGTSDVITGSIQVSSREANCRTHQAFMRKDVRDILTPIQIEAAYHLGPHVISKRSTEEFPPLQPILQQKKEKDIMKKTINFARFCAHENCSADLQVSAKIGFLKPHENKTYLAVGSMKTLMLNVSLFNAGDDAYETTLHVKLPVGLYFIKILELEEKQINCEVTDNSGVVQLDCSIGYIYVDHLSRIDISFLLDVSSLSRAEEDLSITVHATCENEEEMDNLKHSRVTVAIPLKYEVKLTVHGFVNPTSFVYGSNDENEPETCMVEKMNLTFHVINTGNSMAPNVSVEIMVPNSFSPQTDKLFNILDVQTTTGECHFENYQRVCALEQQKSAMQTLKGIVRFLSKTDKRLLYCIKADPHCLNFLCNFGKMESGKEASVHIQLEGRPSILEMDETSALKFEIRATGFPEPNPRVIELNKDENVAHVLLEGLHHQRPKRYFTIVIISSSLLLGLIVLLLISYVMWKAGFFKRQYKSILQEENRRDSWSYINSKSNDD
Sequence of α4β7 integrin (P26010 20-798): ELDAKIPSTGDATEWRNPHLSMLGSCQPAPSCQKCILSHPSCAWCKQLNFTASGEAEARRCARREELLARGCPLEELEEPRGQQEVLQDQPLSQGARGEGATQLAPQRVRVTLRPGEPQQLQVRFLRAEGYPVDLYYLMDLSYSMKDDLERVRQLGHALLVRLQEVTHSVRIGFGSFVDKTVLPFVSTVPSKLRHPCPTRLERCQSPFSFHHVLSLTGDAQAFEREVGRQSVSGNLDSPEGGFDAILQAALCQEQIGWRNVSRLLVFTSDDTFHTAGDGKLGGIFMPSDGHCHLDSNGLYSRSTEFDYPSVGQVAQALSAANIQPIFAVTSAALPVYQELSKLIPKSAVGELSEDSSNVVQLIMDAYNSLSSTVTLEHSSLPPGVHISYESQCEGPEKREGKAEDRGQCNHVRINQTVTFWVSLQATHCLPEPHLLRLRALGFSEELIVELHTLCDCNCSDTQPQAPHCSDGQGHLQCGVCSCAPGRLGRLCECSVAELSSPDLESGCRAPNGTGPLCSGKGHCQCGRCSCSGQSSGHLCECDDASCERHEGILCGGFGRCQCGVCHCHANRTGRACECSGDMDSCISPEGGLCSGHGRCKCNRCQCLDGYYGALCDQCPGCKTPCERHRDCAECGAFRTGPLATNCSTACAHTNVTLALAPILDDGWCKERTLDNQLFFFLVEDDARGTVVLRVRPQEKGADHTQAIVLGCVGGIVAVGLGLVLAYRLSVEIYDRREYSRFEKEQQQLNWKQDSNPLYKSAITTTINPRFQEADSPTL
Procedure, shortened: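 RPMI-8866 cells (2×10^6 per mL) added with compounds (1% DMSO) to MAdCAM-coated wells blocked in HEPES/NaCl buffer with 1 mM MnCl2, 0.1 mM CaCl2, 1% BSA; 1 h at 37° C, 5% CO2. After four washes, bound cells read by CellTiter GLO luminescence; % inhibition vs DMSO and control wells, 4-parameter fit.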

Sequence of α4β1 integrin (P13612 34-1032): as the sequence (P13612 34-1032) above
Sequence of α4β1 integrin (P05556 21-798): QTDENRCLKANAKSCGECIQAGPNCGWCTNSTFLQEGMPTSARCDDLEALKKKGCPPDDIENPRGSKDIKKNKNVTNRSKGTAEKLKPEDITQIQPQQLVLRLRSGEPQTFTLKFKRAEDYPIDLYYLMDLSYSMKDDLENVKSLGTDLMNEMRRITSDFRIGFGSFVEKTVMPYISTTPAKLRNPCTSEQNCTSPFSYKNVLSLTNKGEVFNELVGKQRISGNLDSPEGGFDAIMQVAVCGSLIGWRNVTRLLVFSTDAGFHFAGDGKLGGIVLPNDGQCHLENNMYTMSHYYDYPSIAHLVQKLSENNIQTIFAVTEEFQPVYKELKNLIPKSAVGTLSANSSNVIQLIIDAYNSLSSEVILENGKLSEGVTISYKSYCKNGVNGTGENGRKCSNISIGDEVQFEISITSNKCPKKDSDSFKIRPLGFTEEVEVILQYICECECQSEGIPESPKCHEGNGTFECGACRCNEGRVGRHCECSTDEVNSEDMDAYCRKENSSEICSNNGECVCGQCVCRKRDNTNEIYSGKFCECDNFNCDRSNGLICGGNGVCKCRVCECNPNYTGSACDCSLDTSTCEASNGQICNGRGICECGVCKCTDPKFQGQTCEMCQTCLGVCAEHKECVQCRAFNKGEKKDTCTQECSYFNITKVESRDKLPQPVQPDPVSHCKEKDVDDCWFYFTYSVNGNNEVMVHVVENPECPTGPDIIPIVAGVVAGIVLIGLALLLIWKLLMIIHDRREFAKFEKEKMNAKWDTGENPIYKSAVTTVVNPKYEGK

Row | SMILES | IC50 [1] | IC50 [2]
1 | Cn1ccc(=O)n(-c2cccc3c(C[C@H](NC(=O)c4c(F)cc(NCC(F)(F)F)cc4CN4CCOCC4)C(=O)O)cccc23)c1=O [Compound 19] | 100 to 1000 nM | < 10 nM
2 | Cn1ccc(=O)n(-c2cccc3c(C[C@H](NC(=O)c4c(F)cc(N5CCOC[C@@H]5C(F)(F)F)cc4CN4CCOCC4)C(=O)O)cccc23)c1=O [Compound 20] | 100 to 1000 nM | < 10 nM
3 | CN1CCN(c2cc(F)c(C(=O)N[C@@H](Cc3cccc4c(-n5c(=O)ccn(C)c5=O)cccc34)C(=O)O)c(F)c2)[C@@H](C(F)(F)F)C1 [Compound 21] | > 1000 nM | 10 to 100 nM
4 | CN1CCN(Cc2cc(N3CCOC[C@@H]3C(F)(F)F)cc(F)c2C(=O)N[C@@H](Cc2cccc3c(-n4c(=O)ccn(C)c4=O)cccc23)C(=O)O)CC1 [Compound 22] | > 1000 nM | < 10 nM
5 | O=C(N[C@@H](Cc1cccc2c(-c3nccc4ccncc34)cccc12)C(=O)O)c1c(F)cc(N2CCOC[C@@H]2C(F)(F)F)cc1F [Compound 23] | > 1000 nM | < 10 nM
6 | Cn1ccc(=O)n(-c2cccc3c(C[C@H](NC(=O)c4ccc(C(=O)NCCCCN)nc4)C(=O)O)cccc23)c1=O [Compound 24] | > 1000 nM | > 1000 nM
7 | Cn1ccc(=O)n(-c2cccc3c(C[C@H](NC(=O)c4ccc(C(=O)N5CCc6ccccc6C5)nc4)C(=O)O)cccc23)c1=O [Compound 25] | > 1000 nM | > 1000 nM
8 | Cn1ccc(=O)n(-c2cccc3c(C[C@H](NC(=O)c4c(F)cc(C(F)(F)F)cc4F)C(=O)O)cccc23)c1=O [Compound 26] | > 1000 nM | 10 to 100 nM
9 | Cn1ccc(=O)n(-c2cccc3c(C[C@H](NC(=O)c4c(F)cc5c(ccn5C)c4F)C(=O)O)cccc23)c1=O [Compound 27] | > 1000 nM | 10 to 100 nM
10 | COc1cc(F)c(C(=O)N[C@@H](Cc2cccc3c(-n4c(=O)ccn(C)c4=O)cccc23)C(=O)O)c(F)c1 [Compound 28] | > 1000 nM | 10 to 100 nM
11 | Cn1ccc(=O)n(-c2cccc3c(C[C@H](NC(=O)c4c(F)ccc(C(F)(F)F)c4F)C(=O)O)cccc23)c1=O [Compound 29] | > 1000 nM | 10 to 100 nM
12 | CC(C)Oc1cc(F)c(C(=O)N[C@@H](Cc2cccc3c(-n4c(=O)ccn(C)c4=O)cccc23)C(=O)O)c(F)c1 [Compound 30] | > 1000 nM | 10 to 100 nM
13 | Cn1ccc(=O)n(-c2cccc3c(C[C@H](NC(=O)c4c(F)ccc(OC(F)F)c4F)C(=O)O)cccc23)c1=O [Compound 31] | 100 to 1000 nM | 10 to 100 nM
14 | Cn1ccc(=O)n(-c2cccc3c(C[C@H](NC(=O)c4c(F)cc(CN5CCC5)cc4F)C(=O)O)cccc23)c1=O [Compound 33] | > 1000 nM | > 1000 nM
15 | Cn1ccc(=O)n(-c2cccc3c(C[C@H](NC(=O)c4c(F)cc(CN5CCOCC5)cc4F)C(=O)O)cccc23)c1=O [Compound 34] | > 1000 nM | 100 to 1000 nM
16 | Cn1ccc(=O)n(-c2cccc3c(C[C@H](NC(=O)C4CCN(CC(F)(F)F)CC4)C(=O)O)cccc23)c1=O [Compound 35] | > 1000 nM | > 1000 nM
17 | CCN1CCC(C(=O)N[C@@H](Cc2cccc3c(-n4c(=O)ccn(C)c4=O)cccc23)C(=O)O)CC1 [Compound 36] | > 1000 nM | > 1000 nM
18 | O=C(N[C@@H](Cc1cccc2c(-c3nccc4ccncc34)cccc12)C(=O)O)c1c(F)cc(CN2CCC2)cc1F [Compound 37] | > 1000 nM | > 1000 nM
19 | O=C(N[C@@H](Cc1cccc2c(-c3nccc4ccncc34)cccc12)C(=O)O)c1c(F)cc(CN2CCOCC2)cc1F [Compound 38] | > 1000 nM | 100 to 1000 nM
20 | O=C(N[C@@H](Cc1cccc2c(-c3nccc4ccncc34)cccc12)C(=O)O)c1c(F)cc(N2CCOC[C@@H]2CC(F)F)cc1F [Compound 39] | > 1000 nM | 10 to 100 nM
21 | Cn1ccc(=O)n(-c2cccc3c(C[C@H](NC(=O)c4c(F)cc5c(c4F)CS(=O)(=O)N5)C(=O)O)cccc23)c1=O [Compound 43] | 100 to 1000 nM | < 10 nM
22 | Cn1ccc(=O)n(-c2cccc3c(C[C@H](NC(=O)c4cc(C(=O)N5CCc6ccccc6C5)n(-c5ccccc5)n4)C(=O)O)cccc23)c1=O [Compound 44] | > 1000 nM | > 1000 nM
23 | Cn1ccc(=O)n(-c2cccc3c(C[C@H](NC(=O)c4cc(C(=O)NCCCCN)n(-c5ccccc5)n4)C(=O)O)cccc23)c1=O [Compound 45] | > 1000 nM | > 1000 nM

Row | SMILES | IC50 [1] | IC50 [2]
24 | O=C(N[C@@H](Cc1cccc2c(-c3nccc4ccncc34)cccc12)C(=O)O)c1c(F)cc(N2CCOC[C@@H]2CC(F)F)cc1CN1CCOCC1 [Compound 46] | > 1000 nM | < 10 nM
25 | O=C(N[C@@H](Cc1cccc2c(-c3cccc4ccncc34)cccc12)C(=O)O)c1c(F)cc(N2CCOC[C@@H]2C(F)(F)F)cc1F [Compound 47] | > 1000 nM | 10 to 100 nM
26 | Cn1ccc(=O)n(-c2cccc3c(C[C@H](NC(=O)c4c(F)cc(N5CCOC[C@@H]5C(F)(F)F)cc4CN4CCCC4)C(=O)O)cccc23)c1=O [Compound 48] | 100 to 1000 nM | < 10 nM
27 | Cn1ccc(=O)n(-c2cccc3c(C[C@H](NC(=O)c4ccc5cc(C(=O)N6CCC[C@@H]6c6ccccc6)ccc5c4)C(=O)O)cccc23)c1=O [Compound 49] | > 1000 nM | > 1000 nM
28 | CC(=O)N1CCC(C)(C(=O)N[C@@H](Cc2cccc3c(-n4c(=O)ccn(C)c4=O)cccc23)C(=O)O)CC1 [Compound 50] | > 1000 nM | 100 to 1000 nM
29 | Cn1ccc(=O)n(-c2cccc3c(C[C@H](NC(=O)C45CCC(CC4)CC5)C(=O)O)cccc23)c1=O [Compound 51] | > 1000 nM | 100 to 1000 nM
30 | Cn1ccc(=O)n(-c2cccc3c(C[C@H](NC(=O)C45CCC(C)(CC4)CC5)C(=O)O)cccc23)c1=O [Compound 52] | > 1000 nM | 100 to 1000 nM
31 | Cn1ccc(=O)n(-c2cccc3c(C[C@H](NC(=O)C45C[C@H]6C[C@@H](C4)C[C@@H](C5)C6)C(=O)O)cccc23)c1=O [Compound 53] | > 1000 nM | 100 to 1000 nM
32 | Cn1ccc(=O)n(-c2cccc3c(C[C@H](NC(=O)C4(C)CCN(C(=O)C(F)F)CC4)C(=O)O)cccc23)c1=O [Compound 55] | > 1000 nM | 100 to 1000 nM
33 | CCN1CCC(C)(C(=O)N[C@@H](Cc2cccc3c(-n4c(=O)ccn(C)c4=O)cccc23)C(=O)O)C(F)(F)C1 (some centres unmarked) [Compound 56] | > 1000 nM | 100 to 1000 nM
34 | CC(C)N1CCC(C)(C(=O)N[C@@H](Cc2cccc3c(-n4c(=O)ccn(C)c4=O)cccc23)C(=O)O)CC1 [Compound 57] | > 1000 nM | 10 to 100 nM
35 | Cn1ccc(=O)n(-c2cccc3c(C[C@H](NC(=O)C4(C)CCN(CC(F)F)CC4)C(=O)O)cccc23)c1=O [Compound 58] | > 1000 nM | 10 to 100 nM
36 | CC(C)CN1CCC(C)(C(=O)N[C@@H](Cc2cccc3c(-n4c(=O)ccn(C)c4=O)cccc23)C(=O)O)CC1 [Compound 59] | > 1000 nM | 10 to 100 nM
37 | Cn1ccc(=O)n(-c2cccc3c(C[C@H](NC(=O)C4(C)CCN(C5COC5)CC4)C(=O)O)cccc23)c1=O [Compound 60] | > 1000 nM | 10 to 100 nM
38 | Cn1ccc(=O)n(-c2cccc3c(C[C@H](NC(=O)C45CCN(CC4)CC5)C(=O)O)cccc23)c1=O [Compound 62] | > 1000 nM | > 1000 nM
39 | Cn1ccc(=O)n(-c2cccc3c(C[C@H](NC(=O)C4(C)CCC(F)(F)CC4)C(=O)O)cccc23)c1=O [Compound 63] | > 1000 nM | 10 to 100 nM
40 | Cn1ccc(=O)n(-c2cccc3c(C[C@H](NC(=O)C4(Cc5ccc(F)cc5)CCC(F)(F)CC4)C(=O)O)cccc23)c1=O [Compound 64] | > 1000 nM | > 1000 nM
41 | Cn1ccc(=O)n(-c2cccc3c(C[C@H](NC(=O)[C@]45C[C@@H]6C[C@H](C4)C(F)(F)[C@@H](C6)C5)C(=O)O)cccc23)c1=O [Compound 65] | 100 to 1000 nM | 100 to 1000 nM
42 | CCC1(C(=O)N[C@@H](Cc2cccc3c(-n4c(=O)ccn(C)c4=O)cccc23)C(=O)O)CCC(F)(F)CC1 [Compound 66] | > 1000 nM | 100 to 1000 nM
43 | Cn1c(C(F)(F)F)ccc(-c2cccc3c(C[C@H](NC(=O)c4c(F)cc(N5CCOC[C@@H]5C(F)(F)F)cc4F)C(=O)O)cccc23)c1=O [Compound 67] | > 1000 nM | < 10 nM
44 | Cn1ccc(=O)n(-c2cccc3c(C[C@H](NCc4c(F)cccc4F)C(=O)O)cccc23)c1=O [Compound 68] | > 1000 nM | > 1000 nM
45 | Cn1ccc(=O)n(-c2cccc3c(C[C@H](NCc4ccccc4)C(=O)O)cccc23)c1=O [Compound 69] | > 1000 nM | > 1000 nM
46 | Cn1ccc(=O)n(-c2cccc3c(C[C@H](NCc4ccc(N5CCOCC5)cc4)C(=O)O)cccc23)c1=O [Compound 70] | > 1000 nM | > 1000 nM
